According to patent US9708314B2, “Heterocyclic amide compound” (NISSAN CHEMICAL INDUSTRIES, LTD., priority 2013, dated 2017):

Assays:
Assay type in all cases: in vivo
Abutilon theophrasti = assay: Test Example 4: herbicidal effect by application to foliage (diluvial soil, plastic box); conditions: for M (Abutilon theophrasti) herbicidal effect grade: Application herbicide amount 320 g/ha, foliage application
Text: (§1) 5 Herbicidal ratio of 90% or more (almost completely withered) 4 Herbicidal ratio of 70% or more and less than 90% 3 Herbicidal ratio of 40% or more and less than 70% 2 Herbicidal ratio of 20% or more and less than 40% 1 Herbicidal ratio of 5% or more and less than 20% 0 Herbicidal ratio of 5% or less (almost no effect) [Test Example 4] Herbicidal Effect Test by Application to Foliage Sterilized diluvial soil was placed in a plastic box having a length of 21 cm, a width of 13 cm, and a depth of 7 cm. Each of the seeds of Digitaria ciliaris, Setaria viridis, Echinochloa crus-galli var. crus-galli, Avena fatua, Alopecurus myosuroides, Lolium multiflorum Lam., Apera spica-venti., Abutilon theophrasti, Amaranthus retroflexus, Chenopodium album, Stellaria media, Galium spurium, Veronica persica, Zea mays, Glycine max, Oryza sativa, Triticum aestivum, Beta vulgaris ssp. vulgaris, and Brassica campestris L. was sowed in a spot-like manner and was covered with the soil of about 1.5 cm thick. Thereafter, the plants were grown in the greenhouse of 25° C. to 30° C. After the plants were grown for 14 days, the emulsion agent containing the compound of the present invention prepared in accordance with Formulation Example 2 was diluted with water so as to be a predetermined herbicide amount and the diluted compound was uniformly applied to a stem and leaf part with a small-size spray. Three weeks after the herbicide application, effects on each plant were investigated in accordance with the criteria of Test Example 1. A: Echinochloa oryzicola Vasing., B: Scirpus juncoides, C: Monochoria vaginalis, D: Leptochloa chinensis, E: Cyperus difformis, F: Digitaria ciliaris, G: Setaria viridis, H: Echinochloa crus-galli var. crus-galli, I: Avena fatua, J: Alopecurus myosuroides, K: Lolium multiflorum Lam., L: Apera spica-venti., M: Abutilon theophrasti, N: Amaranthus retroflexus, O: Chenopodium album, P: Stellaria media, Q: Galium spurium, R: Veronica persica, a: transplanted Oryza sativa, b: directly sowed Oryza sativa, c: Zea mays, d: Glycine max, e: Triticum aestivum, f: Beta vulgaris ssp. vulgaris, and g: Brassica campestris L. The application herbicide amount (g/ha) means an amount that a concentration is adjusted so that, when an application amount is converted into per hectare (1 ha), the herbicide is applied by the number of grams (g) of the described value.

Alopecurus myosuroides = assay: as above; conditions: for J (Alopecurus myosuroides) herbicidal effect grade: Application herbicide amount 320 g/ha, foliage application
Text: as §1

Setaria viridis = assay: as above; conditions: for G (Setaria viridis) herbicidal effect grade: Application herbicide amount 320 g/ha, foliage application
Text: as §1

Amaranthus retroflexus = assay: as above; conditions: for N (Amaranthus retroflexus) herbicidal effect grade: Application herbicide amount 320 g/ha, foliage application
Text: as §1

Avena fatua = assay: as above; conditions: for I (Avena fatua) herbicidal effect grade: Application herbicide amount 320 g/ha, foliage application
Text: as §1

Galium spurium = assay: as above; conditions: for Q (Galium spurium) herbicidal effect grade: Application herbicide amount 320 g/ha, foliage application
Text: as §1

[1] = tested on: Echinochloa crus-galli var. crus-galli; assay: as above; conditions: for H (Echinochloa crus-galli var. crus-galli) herbicidal effect grade: Application herbicide amount 320 g/ha, foliage application
Text: as §1

Veronica persica = assay: as above; conditions: for R (Veronica persica) herbicidal effect grade: Application herbicide amount 320 g/ha, foliage application
Text: as §1

Stellaria media = assay: as above; conditions: for P (Stellaria media) herbicidal effect grade: Application herbicide amount 320 g/ha, foliage application
Text: as §1

Apera spica-venti. = assay: as above; conditions: for L (Apera spica-venti.) herbicidal effect grade: Application herbicide amount 320 g/ha, foliage application
Text: as §1

Chenopodium album = assay: as above; conditions: for O (Chenopodium album) herbicidal effect grade: Application herbicide amount 320 g/ha, foliage application
Text: as §1

Digitaria ciliaris = assay: as above; conditions: for F (Digitaria ciliaris) herbicidal effect grade: Application herbicide amount 320 g/ha, foliage application
Text: as §1

Lolium multiflorum Lam. = assay: as above; conditions: for K (Lolium multiflorum Lam.) herbicidal effect grade: Application herbicide amount 320 g/ha, foliage application
Text: as §1

Leptochloa chinensis = assay: Test Example 3: herbicidal effect by application to foliage (Wagner pot, water depth 0.1-0.5 cm); conditions: Nineteenth Table; application to foliage; application herbicide amount 320 g/ha
Summary of the method: (§2)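 A small sprayer delivered the diluted emulsion uniformly to foliage at the chosen rate in g/ha, 14 days after sowing in Wagner pots held at 25–30 °C. Outcome: 0–5 herbicidal-ratio score read three weeks post-treatment.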

Cyperus difformis = assay: as above; conditions: Nineteenth Table; application to foliage; application herbicide amount 320 g/ha
Summary of the method: as §2

[2] = tested on: Echinochloa crus-galli var. crus-galli; assay: as above; conditions: Nineteenth Table; application to foliage; application herbicide amount 320 g/ha
Summary of the method: as §2

Zea mays = assay: Test Example 4: effect on crop by application to foliage (diluvial soil, plastic box); conditions: for c (Zea mays) effect on crop grade: Application herbicide amount 320 g/ha, foliage application
Summary of the method: (§3)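 Seeds sown in sterilized diluvial soil, covered ~1.5 cm, grown 14 days in greenhouse at 25° C. to 30° C. Emulsion formulation diluted in water to set rate (g/ha) and sprayed onto stems and leaves. Effect scored visually 3 weeks later on 0–5 scale (5 = ≥90% herbicidal ratio, 0 = ≤5%).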

[3] = tested on: Beta vulgaris ssp. vulgaris; assay: as above; conditions: for f (Beta vulgaris ssp. vulgaris) effect on crop grade: Application herbicide amount 320 g/ha, foliage application
Summary of the method: as §3

Triticum aestivum = assay: as above; conditions: for e (Triticum aestivum) effect on crop grade: Application herbicide amount 320 g/ha, foliage application
Summary of the method: as §3

Glycine max = assay: as above; conditions: for d (Glycine max) effect on crop grade: Application herbicide amount 320 g/ha, foliage application
Summary of the method: as §3

Brassica campestris L. = assay: as above; conditions: for g (Brassica campestris L.) effect on crop grade: Application herbicide amount 320 g/ha, foliage application
Summary of the method: as §3

[4] = tested on: directly sowed Oryza sativa; assay: Test Example 3: effect on crop by application to foliage (Wagner pot, water depth 0.1-0.5 cm); conditions: Nineteenth Table; application to foliage; application herbicide amount 320 g/ha
Summary of the method: as §2

[5] = tested on: directly sowed Oryza sativa; assay: Test Example 4: effect on crop by application to foliage (diluvial soil, plastic box); conditions: application to foliage, application herbicide amount 320 g/ha
Summary of the method: as §3

[6] = application to foliage, application herbicide amount 320 g/ha

| SMILES | M (Abutilon theophrasti) herbicidal effect grade (Abutilon theophrasti) | J (Alopecurus myosuroides) herbicidal effect grade (Alopecurus myosuroides) | G (Setaria viridis) herbicidal effect grade (Setaria viridis) | N (Amaranthus retroflexus) herbicidal effect grade (Amaranthus retroflexus) | I (Avena fatua) herbicidal effect grade (Avena fatua) | Q (Galium spurium) herbicidal effect grade (Galium spurium) | H (Echinochloa crus-galli var. crus-galli) herbicidal effect grade [1] | R (Veronica persica) herbicidal effect grade (Veronica persica) | P (Stellaria media) herbicidal effect grade (Stellaria media) | L (Apera spica-venti.) herbicidal effect grade (Apera spica-venti.) | O (Chenopodium album) herbicidal effect grade (Chenopodium album) | F (Digitaria ciliaris) herbicidal effect grade (Digitaria ciliaris) | K (Lolium multiflorum Lam.) herbicidal effect grade (Lolium multiflorum Lam.) | D (herbicidal effect grade) (Leptochloa chinensis) | E (herbicidal effect grade) (Cyperus difformis) | H (herbicidal effect grade) [2] | c (Zea mays) effect on crop grade (Zea mays) | f (Beta vulgaris ssp. vulgaris) effect on crop grade [3] | e (Triticum aestivum) effect on crop grade (Triticum aestivum) | b (effect on crop grade) [4] | other results |
| --- | --- | --- | --- | --- | --- | --- | --- | --- | --- | --- | --- | --- | --- | --- | --- | --- | --- | --- | --- | --- | --- |
| CSCc1nnc(NC(=O)c2ccc(C(F)(F)F)n3c(C(C)C)nnc23)o1 [1-141] | 3 (Herbicidal ratio of 40% or more and less than 70%) | 0 (Herbicidal ratio of 5% or less (almost no effect)) | 1 (Herbicidal ratio of 5% or more and less than 20%) | 3 (Herbicidal ratio of 40% or more and less than 70%) | 0 (Herbicidal ratio of 5% or less (almost no effect)) | 1 (Herbicidal ratio of 5% or more and less than 20%) | 4 (Herbicidal ratio of 70% or more and less than 90%) | 3 (Herbicidal ratio of 40% or more and less than 70%) | 3 (Herbicidal ratio of 40% or more and less than 70%) | 0 (Herbicidal ratio of 5% or less (almost no effect)) | 4 (Herbicidal ratio of 70% or more and less than 90%) | 3 (Herbicidal ratio of 40% or more and less than 70%) | 0 (Herbicidal ratio of 5% or less (almost no effect)) | 2 (Herbicidal ratio of 20% or more and less than 40%) | 3 (Herbicidal ratio of 40% or more and less than 70%) | 4 (Herbicidal ratio of 70% or more and less than 90%) | 0 (Herbicidal ratio of 5% or less (almost no effect)) | 4 (Herbicidal ratio of 70% or more and less than 90%) | 0 (Herbicidal ratio of 5% or less (almost no effect)) | 1 (Herbicidal ratio of 5% or more and less than 20%) | d (Glycine max) effect on crop grade (Glycine max): 1 (Herbicidal ratio of 5% or more and less than 20%); g (Brassica campestris L.) effect on crop grade (Brassica campestris L.): 4 (Herbicidal ratio of 70% or more and less than 90%) |
| CC(C)c1nnc2c(C(=O)Nc3nnc(CS(C)(=O)=O)o3)ccc(C(F)(F)F)n12 [1-142] | 0 (Herbicidal ratio of 5% or less (almost no effect)) | 0 (Herbicidal ratio of 5% or less (almost no effect)) | 0 (Herbicidal ratio of 5% or less (almost no effect)) | 1 (Herbicidal ratio of 5% or more and less than 20%) | 0 (Herbicidal ratio of 5% or less (almost no effect)) | 1 (Herbicidal ratio of 5% or more and less than 20%) | 3 (Herbicidal ratio of 40% or more and less than 70%) | 0 (Herbicidal ratio of 5% or less (almost no effect)) | 2 (Herbicidal ratio of 20% or more and less than 40%) | 0 (Herbicidal ratio of 5% or less (almost no effect)) | 4 (Herbicidal ratio of 70% or more and less than 90%) | 1 (Herbicidal ratio of 5% or more and less than 20%) | 0 (Herbicidal ratio of 5% or less (almost no effect)) | 1 (Herbicidal ratio of 5% or more and less than 20%) | 0 (Herbicidal ratio of 5% or less (almost no effect)) | 3 (Herbicidal ratio of 40% or more and less than 70%) | 0 (Herbicidal ratio of 5% or less (almost no effect)) | 3 (Herbicidal ratio of 40% or more and less than 70%) | 0 (Herbicidal ratio of 5% or less (almost no effect)) | 0 (Herbicidal ratio of 5% or less (almost no effect)) | d (Glycine max) effect on crop grade (Glycine max): 0 (Herbicidal ratio of 5% or less (almost no effect)); g (Brassica campestris L.) effect on crop grade (Brassica campestris L.): 0 (Herbicidal ratio of 5% or less (almost no effect)) |
| Cc1nnc(NC(=O)c2ccc(C(F)(F)F)n3c(C4CC=CCC4)nnc23)o1 (stereo not drawn) [1-170] | – | – | – | – | – | – | – | – | – | – | – | – | – | 4 (Herbicidal ratio of 70% or more and less than 90%) | – | 2 (Herbicidal ratio of 20% or more and less than 40%) | – | – | – | 1 (Herbicidal ratio of 5% or more and less than 20%) | M: herbicidal effect on Abutilon theophrasti (Abutilon theophrasti; [6]): 3 (Herbicidal ratio of 40% or more and less than 70%); J: herbicidal effect on Alopecurus myosuroides (Alopecurus myosuroides; [6]): 0 (Herbicidal ratio of 5% or less (almost no effect)); G: herbicidal effect on Setaria viridis (Setaria viridis; [6]): 3 (Herbicidal ratio of 40% or more and less than 70%); N: herbicidal effect on Amaranthus retroflexus (Amaranthus retroflexus; [6]): 3 (Herbicidal ratio of 40% or more and less than 70%); I: herbicidal effect on Avena fatua (Avena fatua; [6]): 1 (Herbicidal ratio of 5% or more and less than 20%); Q: herbicidal effect on Galium spurium (Galium spurium; [6]): 2 (Herbicidal ratio of 20% or more and less than 40%); H: herbicidal effect on Echinochloa crus-galli var. crus-galli [1, 6]: 4 (Herbicidal ratio of 70% or more and less than 90%); R: herbicidal effect on Veronica persica (Veronica persica; [6]): 4 (Herbicidal ratio of 70% or more and less than 90%); P: herbicidal effect on Stellaria media (Stellaria media; [6]): 4 (Herbicidal ratio of 70% or more and less than 90%); L: herbicidal effect on Apera spica-venti. (Apera spica-venti.; [6]): 1 (Herbicidal ratio of 5% or more and less than 20%); O: herbicidal effect on Chenopodium album (Chenopodium album; [6]): 5 (Herbicidal ratio of 90% or more (almost completely withered)); F: herbicidal effect on Digitaria ciliaris (Digitaria ciliaris; [6]): 4 (Herbicidal ratio of 70% or more and less than 90%); K: herbicidal effect on Lolium multiflorum Lam. (Lolium multiflorum Lam.; [6]): 1 (Herbicidal ratio of 5% or more and less than 20%); c: effect on crop, Zea mays (Zea mays; [6]): 0 (Herbicidal ratio of 5% or less (almost no effect)); f: effect on crop, Beta vulgaris ssp. vulgaris [3, 6]: 5 (Herbicidal ratio of 90% or more (almost completely withered)); e: effect on crop, Triticum aestivum (Triticum aestivum; [6]): 0 (Herbicidal ratio of 5% or less (almost no effect)); d: effect on crop, Glycine max (Glycine max; [6]): 2 (Herbicidal ratio of 20% or more and less than 40%); b: effect on crop, directly sowed Oryza sativa [5]: 0 (Herbicidal ratio of 5% or less (almost no effect)); g: effect on crop, Brassica campestris L. (Brassica campestris L.; [6]): 3 (Herbicidal ratio of 40% or more and less than 70%) |
